Data published in patent US20260216134A1, “CHARGED PI-CONJUGATED MOLECULES FOR THE TREATMENT OF MICROBIAL INFECTIONS” (priority 2023, published 2026).

Legend:
[1] = tested on: HEMa (normal melanocytes); test: Toxicity on A375 melanoma versus normal melanocytes (HEMa arm); format: cell-based; details: for safety for normal skin melanocyte cells (HEMa): 1 μM concentration
Procedure: (§1) FIG. 32 provides evidence of toxicity of charged pi-conjugated compounds on HEMa (normal melanocytes) versus on A375 melanoma using 1 day of incubation versus 2 days of incubation. BL-204, BL-141-2, BL-304 are aminocyanines. In contrast, TS-1-32 and GL-261-2 are two names for a carboxycyanine compound shown as GL-261-2 in FIG. 23.
This characterization is accurate for long exposures (~24 h) and in 200,000 cells/mL. The limits of toxic concentration (referenced herein as a therapeutic window) can vary with the exposure time and total cell number present in the test. For example, 1 μM concentration of charged pi-conjugated compounds are safe when used at 30 min exposure in the cell culture at 200,000 cells/mL. However, about higher than 2 μM cyanine becomes toxic (~8 μM) even at short exposure time (~30 min) for 200,000 cells/mL. In contrast, for a solid tumor this lethal concentration is expected to be higher since hundreds of millions of cells are contained in a small solid tumor. The dose may be calibrated and normalized by the total number of cells. The correct therapeutic window to kill cancer cells should be expressed in μg of charged pi-conjugated compound per 1 million of cells or ug of charged pi-conjugated compound per gram of cells. […] Therefore, the presently disclosed charged pi-conjugated compounds may be useful in a clinical application in patients where the charged pi-conjugated compounds could protect the normal tissue and selectively cause toxicity to cancer cells.

A375 melanoma = test: Toxicity on A375 melanoma versus normal melanocytes (A375 arm); format: cell-based, human; details: 1 μM concentration
Procedure: as §1
This characterization is accurate for long exposures (~24 h) and in 200,000 cells/mL. The limits of toxic concentration (referenced herein as a therapeutic window) can vary with the exposure time and total cell number present in the test. For example, 1 μM concentration of charged pi-conjugated compounds are safe when used at 30 min exposure in the cell culture at 200,000 cells/mL. However, about higher than 2 μM cyanine becomes toxic (~8 μM) even at short exposure time (~30 min) for 200,000 cells/mL. In contrast, for a solid tumor this lethal concentration is expected to be higher since hundreds of millions of cells are contained in a small solid tumor. The dose may be calibrated and normalized by the total number of cells. The correct therapeutic window to kill cancer cells should be expressed in μg of charged pi-conjugated compound per 1 million of cells or ug of charged pi-conjugated compound per gram of cells. […]

[2] = Crystal violet cytotoxicity test in A375 cells without light activation; format: cell-based, human; details: human
Procedure: The inhibitory concentration of charged pi-conjugated compounds needed to inhibit the cell growth by 50% (toxicity IC50).
Most of the charged pi-conjugated compounds are aminocyanines which are functionalized with alkyl amine group. The charged pi-conjugated compounds were added to cell cultures of A375 cancer cells (human melanoma) and their cytotoxicity was quantified by the crystal violet test and/or clonogenic assays for cell viability. […] The longer the exposure the most cytotoxic the charged pi-conjugated compounds are towards A375 cells. […] The same behavior is observed: the longer the exposure, the more cytotoxic. All molecules presented here are aminocyanines except GL-261-2 which is a carboxyl-cyanine. […] This was the first time a therapeutic window of concentration that can be tuned to selectively kill cancer and/or protect cells was suspected. In finding this therapeutic window concentration and time of exposure are important variables that should be fine tuned.
Based on the finding described above, a larger set of charged pi-conjugated compounds was evaluated for cytotoxicity against A375 cancer cells as shown in FIG. 25 and FIG. 26.
The IC50 is the concentration needed to inhibit the cell viability by 50%. These molecules in FIG. 25 and FIG. 26 were evaluated by crystal violet assay and using 2 days of exposure.

[3] = Clonogenic assay cytotoxicity in A375 cells without light; format: cell-based, human; details: human
Procedure: FIGS. 28A-28B provide a summary of the evidence of the cytotoxicity of charged pi-conjugated compounds without light. Toxicity was measured using clonogenic assay with 7 hours of incubation (contact time between molecules and A375 cells) and 7 days for colony formation. (FIG. 28A) The lethal concentration of the cyanine molecules to kill 50% of the A375 cells (Tox LC50) without light activation. (FIG. 28B) Chemical structure of exemplary charged pi-conjugated compounds. On average, 300 cells equal to 300 colonies were seeded and analyzed for each data point.
Both properties were measured using clonogenic assay with 7 hours of incubation (contact time between molecules and A375 cells) and 7 days for colony formation. 300 cells were seeded and analyzed for each data point.
More cytotoxicity tests were conducted in some additional molecules and using clonogenic assay for cell viability (FIG. 28). A375 cells were exposed to charged pi-conjugated compounds for 7 hours, in contrast to the previously presented assays which were conducted with crystal violet assay and 2 days of exposure. The data points showing the cytotoxicity quantification for each individual molecule are presented in FIG. 29, with resulting IC50 values summarized in Table 4.

[4] = tested on: A549 (epithelial-like lung cells); test: Presto Blue viability assay, A549; format: cell-based; details: Homo sapiens, 8 h treatment, read-out: IC50 (concentration needed to inhibit cell viability by 50%)
Procedure: (§2) The biocompatibility of charged pi-conjugated compounds with mammalian cell lines was evaluated by studying the effects of different charged pi-conjugated compound concentrations on the viability of two mammalian cell lines: A549 (epithelial-like lung cells) and HEK293 (epithelial-like kidney cells). […] Dose-response curves were used to determine IC50 values, that is, the concentration of charged pi-conjugated compound needed to inhibit cell viability by 50%. […] The MIC of MRSA USA300 was used to calculate the therapeutic index. MRSA USA300 is a major contributor to community-associated MRSA infections, including skin and soft tissue infections, bacteraemia, endocarditis, bone and joint infections and nosocomial infections. […]
(§3) The biocompatibility of charged pi-conjugated compounds with mammalian cell lines was assessed by determining their impact on the mitochondrial activity of human alveolar basal epithelial adenocarcinoma cells (A549) and human embryonic kidney cells (HEK293T) cells, using the Presto Blue assay according to the manufacturer's protocol. […] After 8 h, Presto Blue cell viability reagent (Thermo Fisher Scientific, Waltham, MA, USA) was added to the cells, and after 2 h of incubation, fluorescence was measured using a microplate reader (BioTek Instruments Inc., Winooski, VT, USA). […] The therapeutic index was calculated from the ratio between IC50 and the MIC.

MRSA USA300 [5] = test: Therapeutic index calculation (IC50 of mammalian cell lines / MIC); details: ratio of average IC50 for A549 and HEK293 to MIC in MRSA USA300
Procedure: as §2, §3

S. aureus ATCC 25923 = test: Mutation frequency (rifampin-resistant colonies) on repeated treatment; format: cell-based, Staphylococcus aureus; details: frequency of rifampin-resistant colonies
Procedure: In addition, the mutation frequency (assessed as the frequency of rifampin-resistant colonies) of S. aureus ATCC 25923 subjected to repeated treatment with charged pi-conjugated compound or the conventional antibiotic ciprofloxacin was determined.
Mutation frequency was determined using rifampin resistance as a marker. The stored cells were revived overnight in LB broth and then plated on LB agar with and without rifampin (100 mg mL^−1) (Schaaff et al., 2002). The mutation frequency was calculated as the ratio of rifampin-resistant colonies to the total number of colonies.

Gram-positive strains = test: MIC / MIC50 by broth microdilution in panel of Gram-positive strains; format: cell-based; details: MIC50 over all Gram-positive strains tested (Table 2)
Procedure: Antibacterial activity was assessed by determining the minimal inhibitory concentration (MIC) and the minimal bactericidal concentrations (MBC) and by monitoring time-dependent bacterial killing of exponentially growing cells. Bacterial cell suspensions (OD600≈0.02 in cation-adjusted Muller-Hinton Broth) were treated with increasing concentrations of the different molecules. The minimal inhibitory concentration (MIC) was defined as the minimal concentration of the molecule resulting in complete bacterial growth arrest. The minimal bactericidal concentration (MBC) was defined as the lowest concentration of the molecule that killed 99.9% of the inoculum. A molecule was determined to be bactericidal if the ratio of the MBC to the MIC was less than 4 to 6. […] In M. smegmatis, the antibacterial activity of charged pi-conjugated compounds was generally lower.
The MIC values for all Gram-positive strains tested (Table 2) were used to calculate the MIC50, i.e., the minimum inhibitory concentration needed to inhibit the growth of 50% of the tested isolates (FIG. 5A). […] When the average MIC50 values were evaluated, the most susceptible bacterial genera were Streptococcus sp., followed by Staphylococcus sp. In contrast, Propionibacterium sp. had the highest average MIC50 (FIG. 5B).
The broth microdilution method was used to determine the MIC of charged pi-conjugated compounds according to the CLSI guidelines. Charged pi-conjugated compound stock solutions (16 mM) were prepared in dimethyl sulfoxide (DMSO). Serial twofold dilutions of the charged pi-conjugated compounds were freshly prepared using the appropriate liquid media (Table 2), and 100 μL of each dilution was added to the appropriate wells of 96-well microtiter plates. The bacterial inoculum was further diluted in liquid media, and 100 μL was added to each well, resulting in a final cell density of ≈5×10^5 CFU mL^−1. […] A molecule was determined to be bactericidal if the ratio of the MBC to the MIC was less than 4 to 6. […]

[6] = tested on: HEK293 (epithelial-like kidney cells); test: Presto Blue viability assay, HEK293; format: cell-based, human; details: Homo sapiens, HEK293, 8 h, read-out: IC50 (concentration needed to inhibit cell viability by 50%)
Procedure: as §2, §3

MRSA USA300 [7] = test: In vivo anti-infective activity in G. mellonella infected with MRSA; set-up: species or system Galleria mellonella; details: 10-80 μM; vehicle-treated infected worms one day
Procedure: The in vivo anti-infective capacity of charged pi-conjugated compounds was evaluated in the invertebrate model G. mellonella infected with MRSA USA300. The survival curves shown in FIG. 21 illustrate the efficacy of two charged pi-conjugated compounds, BL 248 and BL 273, against MRSA USA300 infection in G. mellonella. With increasing concentrations of both molecules, there was a discernible improvement in survival compared with the vehicle-treated control group.
To evaluate the in vivo anti-infective activity of charged pi-conjugated compounds, MRSA USA300 was cultured overnight in tryptic soy broth and diluted to ~2×10^7 CFU mL^−1 in sterile phosphate-buffered saline based on OD600. Cohorts of five G. mellonella larvae (~300 mg each) were injected with 10 μL of the diluted bacterial suspension (2×10^5 […]) via the last left proleg, following larvae sterilization with 70% ethanol. One hour post-infection, the larvae were injected with increasing concentrations of charged pi-conjugated compounds or 1% DMSO (in PBS) as a negative control. Uninfected larvae were also used as controls. Larvae were incubated at 37° C., and survival was monitored afterward. Death was defined by complete melanization of the larval body and lack of movement in response to touch.

Structure (SMILES)	cell viability of normal skin melanocyte cells [1]	safety for normal skin melanocyte cells (HEMa) [1]	selectivity for killing cancer cells (A375) (A375 melanoma)	IC50 at 2 days [2]	IC50 at 7 h [3]	further results
CN(C)CC[N+]1=C(/C=C/C2=CC(=C/C=C3/N(C)c4ccc5ccccc5c4C3(C)C)/CCC2)C(C)(C)c2c1ccc1ccccc21.[I-] [BL-204, 3-(2-(dimethylamino)ethyl)-1,1-dimethyl-2-((E)-2-((E)-3-((E)-2-(1,1,3-trimethyl-1,3-dihydro-2/I-benzo[e]indol-2-ylidene)ethylidene)cyclohex-1-en-1-yl)vinyl)-1H-benzo[e]indol-3-ium]	increased the cell viability	safe for normal skin melanocyte cells	selective to specifically kill cancer cells	600 nM	220 nM	–
CN(C)C(=O)CN1c2ccc3ccccc3c2C(C)(C)C1/C=C/C1=CC(=C/C=C2/N(C)c3ccc4ccccc4c3C2(C)C)/CCC1.I (stereo not shown) [BL 248]	–	–	–	–	–	IC50 [4]: 14.7 µM; therapeutic index (MRSA USA300 [5]): 9.3
O=C(O)c1cn(C2CC2)c2cc(N3CCNCC3)c(F)cc2c1=O [ciprofloxacin]	–	–	–	–	–	mutation rate across treatment cycles (S. aureus ATCC 25923): marked increase across treatment cycles
CN(C)CCCCCC[N+]1=C(/C=C/C2=CC(=C/C=C3/N(C)c4ccc5ccccc5c4C3(C)C)/CCC2)C(C)(C)c2c1ccc1ccccc21.[I-] [BL-141-2, 3-(6-(dimethylamino)hexyl)-1,1-dimethyl-2-((E)-2-((E)-3-((E)-2-(1,1,3-trimethyl-1,3-dihydro-2H-benzo[e]indol-2-ylidene)ethylidene)cyclohex-1-en-1-yl)vinyl)-1H-benzo[e]indol-3-ium]	increased the cell viability	safe for normal skin melanocyte cells	selective to specifically kill cancer cells	750 nM	400 nM	–
CN(C)C(=O)CN1/C(=C/C=C2C=C(/C=C/C3=[N+](CC(=O)N(C)C)c4ccc5ccccc5c4C3(C)C)CCC/2)C(C)(C)c2c1ccc1ccccc21.[Br-] [BL 273, 3-(2-(dimethylamino)-2-oxoethyl)-2-((E)-2-((E)-3-((E)-2-(3-(2-(dimethylamino)-2-oxoethyl)-1,1-dimethyl-1,3-dihydro-2H-benzo[e]indol-2-ylidene)ethylidene)cyclohex-1-en-1-yl)vinyl)-1,1-dimethyl-1H-benzo[e]indol-3-ium]	–	–	–	–	–	antibacterial activity according to MIC50 (Gram-positive strains): strongest antibacterial activity; IC50 [6]: 13.7 µM; survival of infected worms (MRSA USA300 [7]): three or more days
